Test results from patent US10918713B2, “Epitopes from allergen proteins and methods and uses for immune response modulation” (LA JOLLA INSTITUTE FOR ALLERGY AND IMMUNOLOGY, priority 2012, dated 2021).
Values joined by “and” are separate entries in the source; they are usually repeats but may differ in a detail not shown here. Identical values can stand only once.

How the values were obtained:
Type in all cases: cell-based, human
[1] = tested on: PBMC from allergic donors; assay: Dual ELISPOT, total IL-5 and IFN-γ response (SFC); details: sum of IFNg and IL-5
Procedure: (§1) Spots were counted by computer-assisted image analysis (Zeiss, KS-ELISPOT reader, Munich, Germany).
(§2) Each assay was performed in triplicate. The level of statistical significance was determined with a Student's t-test using the mean of triplicate values of the response against relevant pools or individual peptides versus the response against the DMSO control.

[2] = tested on: PBMC from allergic donors; assay: IL-5 ELISPOT with extract-stimulated short-term lines; details: positive donor/peptide response
Procedure: as §1, §2

[3] = tested on: PBMC from allergic donors; assay: IFN-γ ELISPOT with extract-stimulated short-term lines; details: positive donor/peptide response
Procedure: as §1, §2

Molecule	Response (SFC/10^6) Total ([1]; each table line is one donor)	Response (SFC/10^6) IL-5 ([2]; each table line is one donor)	Response (SFC/10^6) IFNg ([3]; each table line is one donor)	Response (SFC/10^6) Total ([1]; one donor per table line)	Response (SFC/10^6) IL-5 ([2]; one donor per table line)	Response (SFC/10^6) IFNg ([3]; one donor per table line)
CSCC[C@H](NC(=O)[C@@H]1CCCN1C(=O)CNC(=O)[C@@H](NC(=O)[C@H](CC(C)C)NC(=O)[C@@H]1CCCN1C(=O)[C@H](CCCCN)NC(=O)[C@H](C)NC(=O)[C@H](CO)NC(=O)[C@H](CCCCN)NC(=O)[C@@H](NC(=O)[C@H](CCC(=O)O)NC(=O)[C@H](Cc1c[nH]c2ccccc12)NC(=O)[C@@H](N)CC(C)C)C(C)C)[C@@H](C)O)C(=O)N[C@@H](CC(N)=O)C(=O)O [3337.0031]	90 SFC/10^6 and 1713 SFC/10^6	1010 SFC/10^6	90 SFC/10^6 and 703 SFC/10^6	–	–	–
CC(C)[C@H](NC(=O)[C@H](Cc1ccccc1)NC(=O)[C@H](CO)NC(=O)[C@H](CC(=O)O)NC(=O)[C@H](Cc1ccccc1)NC(=O)[C@H](CCCCN)NC(=O)[C@H](C)NC(=O)[C@H](CCC(=O)O)NC(=O)[C@@H]1CCCN1C(=O)[C@@H](NC(=O)[C@H](C)N)[C@@H](C)O)C(=O)N[C@@H](C)C(=O)N[C@@H](C)C(=O)N[C@@H](Cc1ccccc1)C(=O)N[C@H](C(=O)O)[C@@H](C)O [3324.1570]	238 SFC/10^6 and 80 SFC/10^6 and 117 SFC/10^6	238 SFC/10^6	80 SFC/10^6 and 117 SFC/10^6	–	–	–
CC(C)C[C@H](NC(=O)[C@H](CC(N)=O)NC(=O)[C@H](CC(=O)O)NC(=O)[C@H](CO)NC(=O)[C@H](CC(=O)O)NC(=O)[C@H](CC(C)C)NC(=O)[C@@H](NC(=O)[C@H](Cc1ccccc1)NC(=O)[C@H](C)NC(=O)[C@H](CCCCN)NC(=O)[C@H](Cc1ccccc1)NC(=O)[C@H](CC(C)C)NC(=O)[C@H](CCCNC(=N)N)NC(=O)[C@H](C)NC(=O)[C@@H]1CCCN1)C(C)C)C(=O)O [3324.1585]	–	–	–	170 SFC/10^6 and 2767 SFC/10^6 and 1790 SFC/10^6 and 583 SFC/10^6 and 700 SFC/10^6 and 70 SFC/10^6	170 SFC/10^6 and 890 SFC/10^6 and 1790 SFC/10^6 and 190 SFC/10^6 and 520 SFC/10^6 and 70 SFC/10^6	1877 SFC/10^6 and 393 SFC/10^6 and 180 SFC/10^6
CC[C@H](C)[C@H](NC(=O)[C@@H](NC(=O)[C@H](CCCNC(=N)N)NC(=O)[C@H](CC(C)C)NC(=O)[C@H](C)NC(=O)[C@H](CCC(=O)O)NC(=O)[C@@H](NC(=O)[C@H](CC(C)C)NC(=O)[C@@H](NC(=O)[C@H](C)NC(=O)[C@@H](NC(=O)[C@H](Cc1ccc(O)cc1)NC(=O)[C@H](C)NC(=O)[C@@H](N)CC(=O)O)C(C)C)[C@@H](C)O)[C@@H](C)O)C(C)C)C(=O)N[C@@H](C)C(=O)O [3324.1167]	1427 SFC/10^6 and 1743 SFC/10^6	410 SFC/10^6 and 1743 SFC/10^6	1017 SFC/10^6	–	–	–
3324.1586 (KAVEAYLVAHPDLYK)	–	–	–	83 SFC/10^6 and 53 SFC/10^6 and 143 SFC/10^6 and 553 SFC/10^6	83 SFC/10^6 and 53 SFC/10^6 and 143 SFC/10^6 and 443 SFC/10^6	110 SFC/10^6
CC[C@H](C)[C@H](NC(=O)[C@H](CCSC)NC(=O)[C@H](CCCNC(=N)N)NC(=O)[C@H](Cc1ccccc1)NC(=O)[C@H](CCCCN)NC(=O)[C@@H](NC(=O)[C@H](CCSC)NC(=O)[C@H](CC(N)=O)NC(=O)[C@H](Cc1ccc(O)cc1)NC(=O)[C@@H](NC(=O)[C@@H](N)CCC(=O)O)[C@@H](C)CC)C(C)C)C(=O)N[C@@H](C)C(=O)NCC(=O)N[C@@H](CCC(N)=O)C(=O)N[C@@H](CCC(=O)O)C(=O)O [3324.0978]	–	–	–	167 SFC/10^6 and 1100 SFC/10^6 and 667 SFC/10^6	167 SFC/10^6 and 1100 SFC/10^6	667 SFC/10^6
CC[C@H](C)[C@H](N)C(=O)N[C@H](C(=O)N[C@@H](Cc1ccccc1)C(=O)N[C@@H](CO)C(=O)N[C@@H](CCC(N)=O)C(=O)N[C@@H](CC(N)=O)C(=O)N[C@@H](CCSC)C(=O)N[C@@H](CC(N)=O)C(=O)N[C@H](C(=O)N[C@@H](CCCCN)C(=O)N[C@@H](CC(C)C)C(=O)N[C@@H](CCCCN)C(=O)N[C@@H](CCSC)C(=O)N1CCC[C@H]1C(=O)N[C@@H](CC(C)C)C(=O)O)[C@@H](C)CC)[C@@H](C)CC [3324.0618]	–	–	–	80 SFC/10^6 and 3067 SFC/10^6 and 73 SFC/10^6	3067 SFC/10^6	80 SFC/10^6 and 73 SFC/10^6
CC[C@H](C)[C@H](NC(=O)[C@H](Cc1ccccc1)NC(=O)[C@H](CCCCN)NC(=O)[C@H](Cc1ccc(O)cc1)NC(=O)[C@@H](NC(=O)[C@H](CCC(=O)O)NC(=O)[C@H](Cc1ccc(O)cc1)NC(=O)[C@H](C)NC(=O)CN)[C@@H](C)O)C(=O)N1CCC[C@H]1C(=O)N[C@@H](CO)C(=O)N[C@@H](CC(C)C)C(=O)N[C@@H](CCC(=O)O)C(=O)N[C@@H](C)C(=O)N[C@@H](C)C(=O)O [3324.1433]	247 SFC/10^6 and 208 SFC/10^6 and 153 SFC/10^6	247 SFC/10^6	208 SFC/10^6 and 153 SFC/10^6	–	–	–
CC[C@H](C)[C@H](NC(=O)[C@H](CCC(=O)O)NC(=O)[C@H](CCCNC(=N)N)NC(=O)[C@H](Cc1c[nH]c2ccccc12)NC(=O)[C@H](CCCNC(=N)N)NC(=O)[C@H](Cc1c[nH]cn1)NC(=O)[C@@H](N)CCC(=O)O)C(=O)N[C@@H](Cc1ccc(O)cc1)C(=O)N[C@@H](CC(N)=O)C(=O)N[C@@H](CCSC)C(=O)N[C@H](C(=O)N[C@@H](CCCCN)C(=O)N[C@@H](Cc1ccccc1)C(=O)N[C@@H](CCCNC(=N)N)C(=O)N[C@@H](CCSC)C(=O)O)C(C)C [3324.0986]	–	–	–	300 SFC/10^6 and 1007 SFC/10^6 and 80 SFC/10^6 and 402 SFC/10^6	300 SFC/10^6 and 80 SFC/10^6 and 402 SFC/10^6	1007 SFC/10^6
CC[C@H](C)[C@H](NC(=O)[C@@H](N)CC(=O)O)C(=O)N[C@@H](Cc1ccc(O)cc1)C(=O)N[C@@H](CC(N)=O)C(=O)N[C@@H](Cc1ccc(O)cc1)C(=O)N[C@@H](CCSC)C(=O)N[C@@H](CCC(=O)O)C(=O)N1CCC[C@H]1C(=O)N[C@@H](Cc1ccc(O)cc1)C(=O)N[C@H](C(=O)N[C@@H](CO)C(=O)N[C@@H](CCCCN)C(=O)N[C@H](C(=O)N[C@@H](CC(=O)O)C(=O)N1CCC[C@H]1C(=O)O)C(C)C)C(C)C [3324.0663]	–	–	–	73 SFC/10^6 and 302 SFC/10^6 and 107 SFC/10^6	302 SFC/10^6 and 107 SFC/10^6	73 SFC/10^6
3337.0008 (WLDAKSTWYGKPTGA)	–	–	–	140 SFC/10^6 and 57 SFC/10^6 and 283 SFC/10^6 and 163 SFC/10^6	57 SFC/10^6	140 SFC/10^6 and 283 SFC/10^6 and 163 SFC/10^6
CC[C@H](C)[C@H](NC(=O)[C@H](C)NC(=O)[C@H](CCCCN)NC(=O)[C@H](CC(N)=O)NC(=O)[C@H](Cc1ccccc1)NC(=O)[C@H](C)NC(=O)CNC(=O)[C@H](CCC(=O)O)NC(=O)[C@H](Cc1ccccc1)NC(=O)[C@@H](NC(=O)[C@@H](NC(=O)[C@H](Cc1ccccc1)NC(=O)[C@H](CCCCN)NC(=O)[C@H](CC(=O)O)NC(=O)[C@@H](N)CC(N)=O)[C@@H](C)O)C(C)C)C(=O)O [3324.1442]	400 SFC/10^6 and 93 SFC/10^6	400 SFC/10^6	93 SFC/10^6	–	–	–
CC[C@H](C)[C@H](NC(=O)[C@H](CC(N)=O)NC(=O)[C@H](CCSC)NC(=O)[C@H](CC(N)=O)NC(=O)[C@H](CCC(N)=O)NC(=O)[C@H](CO)NC(=O)[C@H](Cc1ccccc1)NC(=O)[C@@H](NC(=O)[C@@H](NC(=O)[C@H](Cc1c[nH]c2ccccc12)NC(=O)[C@H](CC(C)C)NC(=O)[C@H](C)NC(=O)[C@H](CCCCN)NC(=O)[C@@H](N)CCC(=O)O)[C@@H](C)CC)[C@@H](C)CC)C(=O)N[C@@H](CCCCN)C(=O)O [3324.0615]	–	–	–	400 SFC/10^6	67 SFC/10^6	333 SFC/10^6
3324.1625 (GFYLQWAVHSFRITN)	337 SFC/10^6	143 SFC/10^6	193 SFC/10^6	–	–	–
CC(C)[C@H](NC(=O)CNC(=O)[C@H](CO)NC(=O)[C@H](Cc1ccccc1)NC(=O)[C@H](C)NC(=O)[C@H](Cc1c[nH]c2ccccc12)NC(=O)[C@H](CS)NC(=O)[C@@H](N)CO)C(=O)N[C@@H](C)C(=O)N[C@@H](C)C(=O)N[C@H](C(=O)N[C@@H](CCC(=O)O)C(=O)N[C@@H](CO)C(=O)N[C@@H](C)C(=O)N[C@@H](Cc1ccc(O)cc1)C(=O)O)[C@@H](C)O [3324.0832]	–	–	–	1303 SFC/10^6 and 1007 SFC/10^6	460 SFC/10^6 and 773 SFC/10^6	843 SFC/10^6 and 233 SFC/10^6
CC[C@H](C)[C@H](NC(=O)[C@H](Cc1ccc(O)cc1)NC(=O)[C@H](CCC(=O)O)NC(=O)[C@H](CC(C)C)NC(=O)[C@H](CO)NC(=O)[C@@H](NC(=O)[C@@H](N)Cc1ccccc1)[C@@H](C)O)C(=O)N[C@@H](CCC(=O)O)C(=O)N[C@@H](C)C(=O)N[C@@H](C)C(=O)N[C@@H](CCCCN)C(=O)N[C@@H](Cc1c[nH]c2ccccc12)C(=O)N[C@@H](CC(C)C)C(=O)N[C@@H](CC(C)C)C(=O)N1CCC[C@H]1C(=O)O [3324.1589]	1743 SFC/10^6 and 203 SFC/10^6	1433 SFC/10^6 and 203 SFC/10^6	310 SFC/10^6	–	–	–
